These results are taken from publication PMC3302206 (Biochemistry, 2012).

Values after ≈ are worked out from the molar mass of the structure shown. Ends that are not written are not given here.

The subject of assay [1] is S. aureus mprF mutant. The format is cell-based, Staphylococcus aureus. Conditions: for MIC, S. aureus mprF mutant, −C: absence of carbonate; for MIC, S. aureus mprF mutant, +C: physiological concentration of carbonate present.
The subject of a further assay is wild type S. aureus. The format is cell-based, Staphylococcus aureus.
Assay [2] concerns S. aureus mprF mutant. The assay is classed as cell-based, Staphylococcus aureus. Conditions: for MBC, S. aureus mprF mutant, −C: absence of carbonate; for MBC, S. aureus mprF mutant, +C: carbonate present.
For assay [3], the system named is wild type S. aureus Rosenbach strain. The format is cell-based, Staphylococcus aureus. Conditions: 16 h.
For assay [4], the system named is Staphylococcus aureus UAMS-1. The assay is classed as cell-based. Conditions: clinical isolate.
The subject of another assay is E. coli DC2. The format is cell-based, Escherichia coli. The settings on record: DC2, 16 h.
Another assay concerns E. coli K12. The format is cell-based, Escherichia coli. The settings on record: wild type strain; broth microdilution, measured as described (ref 18 protocol).

Take LLGDFFRKSKEKIGKEFKRIVQR [LL-23]: in the assay on S. aureus mprF mutant [1], the “MIC, S. aureus mprF mutant, −C” value is 24 µM and the “MIC, S. aureus mprF mutant, +C” value turned out to be 3 µM. In addition, in the assay on wild type S. aureus, the “MBC, WT S. aureus, +C” value is above 24 µM and the “MBC, WT S. aureus, −C” value was above 24 µM. In the assay on S. aureus mprF mutant [2], the “MBC, S. aureus mprF mutant, −C” value was above 24 µM and the “MBC, S. aureus mprF mutant, +C” value was found to be 12 µM. Further, in assay [3], the “MIC, WT S. aureus, +C” value is above 24 µM and the “MIC, WT S. aureus, −C” value is above 24 µM. The “MIC, Staphylococcus aureus UAMS-1” value in assay [4] is above 160 µM. Moreover, the “MIC, E. coli DC2” value in the assay on E. coli DC2 was determined as 9 µM.

As to `CC[C@H](C)[C@H](NC(=O)[C@H](CCCCN)NC(=O)[C@H](CCC(=O)O)NC(=O)[C@H](CCCCN)NC(=O)[C@H](CO)NC(=O)[C@H](CCCCN)NC(=O)[C@H](CCCNC(=N)N)NC(=O)[C@H](Cc1ccccc1)NC(=O)[C@H](Cc1ccccc1)NC(=O)[C@H](CC(=O)O)NC(=O)CNC(=O)[C@H](CC(C)C)NC(=O)[C@@H](N)CC(C)C)C(=O)NCC(=O)N[C@@H](CCCCN)C(=O)N[C@@H](CCC(=O)O)C(=O)N[C@@H](Cc1ccccc1)C(=O)N[C@@H](CCCCN)C(=O)N[C@@H](CCCNC(=N)N)C(=O)N[C@H](C(=O)N[C@H](C(=O)N[C@@H](CCC(N)=O)C(=O)N[C@@H](CCCNC(=N)N)C(=O)N[C@H](C(=O)N[C@@H](CCCCN)C(=O)N[C@@H](CC(=O)O)C(=O)N[C@@H](Cc1ccccc1)C(=O)N[C@@H](CC(C)C)C(=O)N[C@@H](CCCNC(=N)N)C(=O)N[C@@H](CC(N)=O)C(=O)N[C@@H](CC(C)C)C(=O)N[C@H](C(=O)N1CCC[C@H]1C(=O)N[C@@H](CCCNC(=N)N)C(=O)N[C@H](C(=O)N[C@@H](CCC(=O)O)C(=O)N[C@@H](CO)C(=O)O)[C@@H](C)O)C(C)C)[C@@H](C)CC)C(C)C)[C@@H](C)CC` [LL-37], the “MIC, E. coli K12” value with E. coli K12 amounted to 5 µM (≈ 22.5 µg/mL).

In the case of LLGDFFRKAKEKIGKEFKRIVQR [LL-23A9], in the assay on S. aureus mprF mutant [1], the “MIC, S. aureus mprF mutant, −C” value stood at 6 µM and the “MIC, S. aureus mprF mutant, +C” value fell in the range of 0.35 to 0.7 µM. Moreover, in the assay on wild type S. aureus, the “MBC, WT S. aureus, +C” value is above 24 µM and the “MBC, WT S. aureus, −C” value is above 24 µM. In addition, in the assay on S. aureus mprF mutant [2], the “MBC, S. aureus mprF mutant, −C” value was in the range of 6 to 12 µM and the “MBC, S. aureus mprF mutant, +C” value was determined as 6 µM. In assay [3], the “MIC, WT S. aureus, +C” value is above 24 µM and the “MIC, WT S. aureus, −C” value was above 24 µM. In addition, the “MIC, E. coli DC2” value in the assay with E. coli DC2 was determined as 9 µM.

Turning to LLGDFFRKVKEKIGKEFKRIVQR [LL-23V9], in the assay with S. aureus mprF mutant [1], the “MIC, S. aureus mprF mutant, −C” value was 6 µM and the “MIC, S. aureus mprF mutant, +C” value was in the range of 0.35 to 0.7 µM. In addition, in the assay with wild type S. aureus, the “MBC, WT S. aureus, +C” value is above 24 µM and the “MBC, WT S. aureus, −C” value was above 24 µM. Besides, in the assay with S. aureus mprF mutant [2], the “MBC, S. aureus mprF mutant, −C” value lay within 3 to 6 µM and the “MBC, S. aureus mprF mutant, +C” value is 6 to 12 µM. In addition, in assay [3], the “MIC, WT S. aureus, +C” value was determined as 12 µM and the “MIC, WT S. aureus, −C” value was above 24 µM. Further, in the assay with E. coli DC2, the “MIC, E. coli DC2” value amounted to 2 µM.

For `CC[C@H](C)[C@H](NC(=O)[C@H](CCCCN)NC(=O)[C@H](CCC(=O)O)NC(=O)[C@H](CCCCN)NC(=O)[C@H](C)NC(=O)[C@H](CCCCN)NC(=O)[C@H](CCCNC(=N)N)NC(=O)[C@H](Cc1ccccc1)NC(=O)[C@H](Cc1ccccc1)NC(=O)[C@H](CC(=O)O)NC(=O)CNC(=O)[C@H](CC(C)C)NC(=O)[C@@H](N)CC(C)C)C(=O)NCC(=O)N[C@@H](CCCCN)C(=O)N[C@@H](CCC(=O)O)C(=O)N[C@@H](Cc1ccccc1)C(=O)N[C@@H](CCCCN)C(=O)N[C@@H](CCCNC(=N)N)C(=O)N[C@H](C(=O)N[C@H](C(=O)N[C@@H](CCC(N)=O)C(=O)N[C@@H](CCCNC(=N)N)C(=O)N[C@H](C(=O)N[C@@H](CCCCN)C(=O)N[C@@H](CC(=O)O)C(=O)N[C@@H](Cc1ccccc1)C(=O)N[C@@H](CC(C)C)C(=O)N[C@@H](CCCNC(=N)N)C(=O)N[C@@H](CC(N)=O)C(=O)N[C@@H](CC(C)C)C(=O)N[C@H](C(=O)N1CCC[C@H]1C(=O)N[C@@H](CCCNC(=N)N)C(=O)N[C@H](C(=O)N[C@@H](CCC(=O)O)C(=O)N[C@@H](CO)C(=O)O)[C@@H](C)O)C(C)C)[C@@H](C)CC)C(C)C)[C@@H](C)CC` [LL-37A9], in the assay on E. coli DC2, the “MIC, E. coli DC2” value stood at 6 µM (≈ 26.9 µg/mL).

As to `CC[C@H](C)[C@H](NC(=O)[C@H](CCCCN)NC(=O)[C@H](CCC(=O)O)NC(=O)[C@H](CCCCN)NC(=O)[C@@H](NC(=O)[C@H](CCCCN)NC(=O)[C@H](CCCNC(=N)N)NC(=O)[C@H](Cc1ccccc1)NC(=O)[C@H](Cc1ccccc1)NC(=O)[C@H](CC(=O)O)NC(=O)CNC(=O)[C@H](CC(C)C)NC(=O)[C@@H](N)CC(C)C)C(C)C)C(=O)NCC(=O)N[C@@H](CCCCN)C(=O)N[C@@H](CCC(=O)O)C(=O)N[C@@H](Cc1ccccc1)C(=O)N[C@@H](CCCCN)C(=O)N[C@@H](CCCNC(=N)N)C(=O)N[C@H](C(=O)N[C@H](C(=O)N[C@@H](CCC(N)=O)C(=O)N[C@@H](CCCNC(=N)N)C(=O)N[C@H](C(=O)N[C@@H](CCCCN)C(=O)N[C@@H](CC(=O)O)C(=O)N[C@@H](Cc1ccccc1)C(=O)N[C@@H](CC(C)C)C(=O)N[C@@H](CCCNC(=N)N)C(=O)N[C@@H](CC(N)=O)C(=O)N[C@@H](CC(C)C)C(=O)N[C@H](C(=O)N1CCC[C@H]1C(=O)N[C@@H](CCCNC(=N)N)C(=O)N[C@H](C(=O)N[C@@H](CCC(=O)O)C(=O)N[C@@H](CO)C(=O)O)[C@@H](C)O)C(C)C)[C@@H](C)CC)C(C)C)[C@@H](C)CC` [LL-37V9], the “MIC, E. coli DC2” value against E. coli DC2 was determined as 12 µM (≈ 54.1 µg/mL).
